Test results as given in patent US20170119776A1, “CHIRAL 2,5-DISUBSTITUTED CYCLOPENTANECARBOXYLIC ACID DERIVATIVES AND USE THEREOF” (BAYER PHARMA AKTIENGESELLSCHAFT, priority 2014, published 2017).

Assays:
Assay type in all cases: biochemical
MMP-2 = target: T1, MMP-2 (Homo sapiens, UniProt P08253); test: In vitro MMP-2 inhibition test
T1 construct: purchased R&D Systems 902-MP
T1 sequence (P08253 110-660): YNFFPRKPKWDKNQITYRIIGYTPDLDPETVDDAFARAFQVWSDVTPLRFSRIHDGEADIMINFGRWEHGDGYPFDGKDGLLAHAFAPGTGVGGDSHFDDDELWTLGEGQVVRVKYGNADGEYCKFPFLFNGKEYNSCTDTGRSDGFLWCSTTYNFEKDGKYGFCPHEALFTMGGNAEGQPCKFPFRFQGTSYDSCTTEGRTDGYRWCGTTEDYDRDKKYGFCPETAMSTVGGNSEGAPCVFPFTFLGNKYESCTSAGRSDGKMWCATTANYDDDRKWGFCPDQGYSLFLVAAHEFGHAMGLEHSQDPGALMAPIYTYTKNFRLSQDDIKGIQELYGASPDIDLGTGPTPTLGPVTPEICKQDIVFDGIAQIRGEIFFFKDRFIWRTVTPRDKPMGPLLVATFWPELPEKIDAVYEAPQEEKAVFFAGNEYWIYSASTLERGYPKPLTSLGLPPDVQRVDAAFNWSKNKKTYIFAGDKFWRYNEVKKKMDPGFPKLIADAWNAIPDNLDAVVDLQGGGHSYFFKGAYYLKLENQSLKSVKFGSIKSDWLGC
Excerpt: (§1) The activity strength of the compounds according to the invention towards other MMPs (and therefore their selectivity) is likewise ascertained in in vitro inhibition tests. The MMP-mediated amidolytic cleavage of a suitable peptide substrate also leads here to a fluorescent light increase. The signal intensity of the fluorescent light is directly proportional to the enzyme activity. The active concentration of a test compound at which half of the enzyme is inhibited (50% signal intensity of the fluorescent light) is given as IC50 value.
(§2) Recombinant MMP-2 (R&D Systems, 902-MP) is chemically activated in accordance with the manufacturer's instructions using APMA. 1 μl of the test compound to be analysed (as a solution in DMSO, suitable concentrations e.g. 1 nM to 30 μM) is pipetted into 24 μl of activated enzyme (final concentration e.g. 2 nM) in reaction buffer (50 mM Tris/HCl pH 7.5, 10 mM CaCl2, 150 mM NaCl, 0.05% Brij®-35) in a white 384-hole microtiter plate (MTP). The enzymatic reaction is started by adding the intramolecularly quenched substrate Mca-Pro-Leu-Gly-Leu-Dpa(Dnp)-Ala-Arg-NH2 (final concentration e.g. 10 μM; R&D Systems, ES-001), such that a total test volume of 50 μl results. The progress of the MMP-2 reaction is measured by measuring the fluorescence intensity (excitation 320 nm, emission 410 nm) over a suitable period (e.g. over 120 min at a temperature of 32° C.).
(§3) The IC50 values were determined for racemates and enantiomers from differently generated DMSO stock solutions. Whereas an automatically produced DMSO stock solution from the internal substance logistics was used for racemates by means of a standard method, in the case of enantiomers a freshly produced, manually prepared DMSO stock solution was used in each case for a more precise direct comparison of the enantiomers with one another.

MMP-7 = target: T2, MMP-7 (Homo sapiens, UniProt P09237); test: In vitro MMP-7 inhibition test
T2 construct: purchased R&D Systems 907-MP
T2 sequence (P09237 95-267): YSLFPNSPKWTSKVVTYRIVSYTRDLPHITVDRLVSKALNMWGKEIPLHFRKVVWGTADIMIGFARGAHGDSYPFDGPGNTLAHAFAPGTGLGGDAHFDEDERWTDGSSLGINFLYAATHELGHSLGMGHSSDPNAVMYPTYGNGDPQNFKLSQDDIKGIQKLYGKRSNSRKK
Excerpt: as §1
as §2, with “Recombinant MMP-7” for “Recombinant MMP-2”, “Systems, 907-MP)” for “Systems, 902-MP)”, “is pipette” for “is pipetted”, “e.g. 0.5” for “e.g. 2”, “the MMP-7” for “the MMP-2”
as §3

MMP-3 = target: T3, MMP-3 (Homo sapiens, UniProt P08254); test: In vitro MMP-3 inhibition test
T3 construct: purchased R&D Systems 513-MP
T3 sequence (P08254 100-477): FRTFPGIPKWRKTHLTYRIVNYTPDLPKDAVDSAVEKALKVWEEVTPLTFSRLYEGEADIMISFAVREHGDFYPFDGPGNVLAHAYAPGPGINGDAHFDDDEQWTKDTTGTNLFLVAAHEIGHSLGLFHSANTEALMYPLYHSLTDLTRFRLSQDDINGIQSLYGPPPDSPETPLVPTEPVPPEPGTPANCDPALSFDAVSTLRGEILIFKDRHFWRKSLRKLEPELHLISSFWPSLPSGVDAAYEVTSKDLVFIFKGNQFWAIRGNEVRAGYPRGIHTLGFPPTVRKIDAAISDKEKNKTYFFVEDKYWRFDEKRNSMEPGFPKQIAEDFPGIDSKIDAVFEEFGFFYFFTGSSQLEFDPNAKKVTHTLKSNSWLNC
Excerpt: as §1
as §2, with “MMP-3” for “MMP-2”, “513-MP)” for “902-MP)”, “Mca-Arg-Pro-Lys-Pro-Val-Glu-Nval-Trp-Arg-Lys(Dnp)-NH2” for “Mca-Pro-Leu-Gly-Leu-Dpa(Dnp)-Ala-Arg-NH2”, “ES-002),” for “ES-001),”
as §3

MMP-16 = target: T4, MMP-16 (Homo sapiens, UniProt P51512); test: In vitro MMP-16 inhibition test
T4 construct: purchased R&D Systems 1785-MP
T4 sequence (P51512 120-607): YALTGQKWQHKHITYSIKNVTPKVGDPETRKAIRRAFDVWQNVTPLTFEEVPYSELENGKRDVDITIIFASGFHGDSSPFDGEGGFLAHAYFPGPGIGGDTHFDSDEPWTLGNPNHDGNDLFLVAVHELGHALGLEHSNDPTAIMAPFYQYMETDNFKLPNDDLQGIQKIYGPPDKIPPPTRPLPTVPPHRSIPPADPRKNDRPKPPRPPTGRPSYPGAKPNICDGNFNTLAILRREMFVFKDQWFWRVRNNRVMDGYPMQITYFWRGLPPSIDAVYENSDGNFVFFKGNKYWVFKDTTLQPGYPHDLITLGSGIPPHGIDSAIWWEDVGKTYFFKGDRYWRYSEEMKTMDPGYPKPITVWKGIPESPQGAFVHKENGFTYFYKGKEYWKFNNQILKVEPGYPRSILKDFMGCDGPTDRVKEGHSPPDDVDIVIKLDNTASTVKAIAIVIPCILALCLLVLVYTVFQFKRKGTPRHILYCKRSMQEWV
Excerpt: as §1
Recombinant MMP-16 (R&D Systems, 1785-MP) is enzymatically activated in accordance with the manufacturer's instructions using recombinant furin (R&D Systems, 1503-SE). 1 μl of the test compound to be analysed (as a solution in DMSO, suitable concentrations e.g. 1 nM to 30 μM) is pipette into 24 μl of activated enzyme (final concentration e.g. 1 nM) in reaction buffer (50 mM Tris/HCl pH 7.5, 10 mM CaCl2, 150 mM NaCl, 0.05% Brij®-35) in a white 384-hole microtiter plate (MTP). The enzymatic reaction is started by adding the intramolecularly quenched substrate Mca-Lys-Pro-Leu-Gly-Leu-Dpa(Dnp)-Ala-Arg-NH2 (final concentration e.g. 5 μM; R&D Systems, ES-010), such that a total test volume of 50 μl results. The progress of the MMP-16 reaction is measured by measuring the fluorescence intensity (excitation 320 nm, emission 410 nm) over a suitable period (e.g. over 120 min at a temperature of 32° C.).
as §3

Structure (SMILES) | IC50 (MMP-2) | IC50 (MMP-7) | IC50 (MMP-3) | IC50 (MMP-16)
O=C(O)[C@H]1[C@H](Cn2nnc3ccccc3c2=O)CC[C@@H]1C(=O)c1ccc(-c2ccc(Cl)cc2)cc1 (racemic) [Comparative Example A-1, (1RS,2RS,5SR)-2-[(4′-chlorobiphenyl-4-yl)carbonyl]-5-[(4-oxo-1,2,3-benzotriazin-3(4H)-yl)methyl]cyclopentanecarboxylic acid (racemate)] | 1.1 nM | 310 nM | 49 nM | 16 nM
CCCCCOc1ccc(C(=O)CC(CCn2nnc3ccccc3c2=O)C(=O)O)cc1 (racemic) [Comparative Example B-1, (+/−)-4-Oxo-2-[2-(4-oxo-1,2,3-benzotriazin-3(4H)-yl)ethyl]-4-[4-(pentyloxy)phenyl]butanoic acid (racemate)] | 450 nM | > 40000 nM | 9150 nM | 22000 nM
O=C(O)[C@H]1[C@H](Cn2nnc3ccccc3c2=O)CC[C@@H]1C(=O)c1ccc(OCc2ccccc2)cc1 (racemic) [Example 1, (+/−)-(1RS,2RS,5SR)-2-[4-(Benzyloxy)benzoyl]-5-[(4-oxo-1,2,3-benzotriazin-3(4H)-yl)methyl]cyclopentanecarboxylic acid (racemate)] | 18 nM | 500 nM | 390 nM | 130 nM
CCCCCOc1ccc(C(=O)CC(CCn2nnc3ccccc3c2=O)C(=O)O)cc1 (single isomer, unassigned; enantiomer 1) [Comparative Example B-2, (+)-4-Oxo-2-[2-(4-oxo-1,2,3-benzotriazin-3(4H)-yl)ethyl]-4-[4-(pentyloxy)phenyl]butanoic acid (enantiomer 1)] | 120 nM | 22500 nM | 6600 nM | 6700 nM
O=C(O)[C@@H]1[C@@H](Cn2nnc3ccccc3c2=O)CC[C@H]1C(=O)c1ccc(-c2ccc(Cl)cc2)cc1 (single isomer, unassigned; enantiomer 2) [Comparative Example A-3, (1RS,2RS,5SR)-2-[(4′-Chlorobiphenyl-4-yl)carbonyl]-5-[(4-oxo-1,2,3-benzotriazin-3(4H)-yl)methyl]cyclopentanecarboxylic acid (enantiomer 2)] | 0.7 nM | 145 nM | 22.5 nM | 5.2 nM
O=C(O)[C@H]1[C@H](Cn2nnc3ccccc3c2=O)CC[C@@H]1C(=O)c1ccc(OCc2ccccc2)cc1 [Example 2, (+)-(1S,2S,5R)-2-[4-(Benzyloxy)benzoyl]-5-[(4-oxo-1,2,3-benzotriazin-3(4H)-yl)methyl]cyclopentanecarboxylic acid] | 11.8 nM | 420 nM | 175 nM | 78.5 nM
